Assay results published in patent publication US20070065524A1, “Pharmaceutical composition containing guaiacol derivatives and syringol derivatives extracted from natural plant vinegar” (priority 2003, published 2007).

Assay: DPPH free radical scavenging ability
Type: biochemical
Description: For example, a method using DPPH(1,1-diphenyl-2-picrylhydrazin) can be used.
DPPH scavenging ability, as described later, was evaluated by using each fraction.
4 ml of samples with 0.1, 0.05, 0.005, 0.001, 0.0005 and 0.0001 mg/ml diluted with methanol and 1 ml of 0.1 mM DPPH methanol solution were put into test tubes and mixed well, and left in a dark place for 30 minutes. Then absorbance of the mixture at 520 nm was read and compared with that of the BHT standard solution. The reducing power of samples can be indicated as scavenging activity (SC50) and SC50 is the concentration of samples that makes the concentration of DPPH reduce to 50%.

SMILES: Cc1cc(C(C)(C)C)c(O)c(C(C)(C)C)c1 [BHT, butylated hydroxy toluene]
- Free radical removal ability (Conc. 10 ug/ml): 23.30 ± 1.94%
- Free radical removal ability (Conc. 50 ug/ml): 68.41 ± 1.55%
- Free radical removal ability (Conc. 100 ug/ml): 87.73 ± 0.64%
- Free radical removal ability (Conc. 500 ug/ml): 96.03 ± 0.12%
